Results on two compounds are retold here after patent US9006205B2, “Antisense oligonucleotides against neutral sphingomyelinase and neutral sphingomyelinase inhibitor GW4869 for degenerative neurological disorders” (Rush University Medical Center, priority 2011, dated 2015).

In assay [1] the test system is NF-κB. The experiment in a line: EMSA of NF-κB DNA-binding activity in primary human astroglia. In kind it is cell-based. The following applies: chemical inhibitor, different concentrations, 30 min preincubation; 1 h of stimulation.
For assay [2], the target named is T1, N-SMase (Homo sapiens, UniProt Q9NY59).
T1 construct: endogenous in cells; host or cells: primary human neurons
T1 sequence (Q9NY59 1-655): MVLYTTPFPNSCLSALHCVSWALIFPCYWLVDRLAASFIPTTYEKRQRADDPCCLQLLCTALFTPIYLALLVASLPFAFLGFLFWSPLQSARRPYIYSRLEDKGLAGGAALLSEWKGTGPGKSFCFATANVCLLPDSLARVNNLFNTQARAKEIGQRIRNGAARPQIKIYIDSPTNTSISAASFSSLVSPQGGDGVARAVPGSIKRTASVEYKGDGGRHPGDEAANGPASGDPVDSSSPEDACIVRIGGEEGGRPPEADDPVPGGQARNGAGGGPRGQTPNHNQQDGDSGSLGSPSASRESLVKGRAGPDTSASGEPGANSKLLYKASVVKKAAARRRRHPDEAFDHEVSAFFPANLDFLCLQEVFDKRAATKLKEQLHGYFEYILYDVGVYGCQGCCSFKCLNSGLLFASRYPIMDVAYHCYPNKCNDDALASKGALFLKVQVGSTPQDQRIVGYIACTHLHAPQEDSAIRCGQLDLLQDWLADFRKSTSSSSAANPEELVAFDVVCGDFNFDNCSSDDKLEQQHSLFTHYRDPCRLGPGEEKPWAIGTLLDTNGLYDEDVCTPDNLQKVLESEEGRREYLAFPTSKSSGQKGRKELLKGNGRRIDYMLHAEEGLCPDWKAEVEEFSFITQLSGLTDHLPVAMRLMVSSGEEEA
As to the kind of experiment: Assay of N-SMase activity in primary human neurons. In kind it is cell-based. As to conditions: activated astroglia-insulted human neurons, chemical inhibitors. The protocol: (§1) Activities of SMase(s) were assayed as described by. Briefly, after treatment, the cells were washed with PBS, harvested in PBS, divided into two halves, and centrifuged. The fraction for N-SMase was resuspended in buffer A (100 mM Tris-HCl, pH 7.4, 0.1% Triton X-100, 1 mM EDTA, and protease inhibitors), and the cell suspension was sonicated and centrifuged at 500×g at 4° C. for 5 min. The supernatant was used as the enzyme source for N-SMase. The reaction mixture contained enzyme preparation in buffer A containing 5 nmol of [^14C] sphingomyelin, 5 nmol of phosphatidylserine, 5 mM dithiothreitol, and 5 mM MgC¾ in a final volume of 100 μl. Similarly, the fraction for A-SMase was resuspended in buffer B (100 mM sodium acetate, pH 5.0, 0.1% Triton X-100, and protease inhibitors). The cell suspension was sonicated and centrifuged. The supernatant was used as the source of A-SMase. The activity of A-SMase was measured in a 100-μl reaction mixture consisting of the enzyme preparation in buffer B and 5 nmol of [^14C] sphingomyelin. The enzyme reaction was initiated by the addition of 50 μl of substrate and stopped by the addition of 1.5 ml of chloroform:methanol (2:1, v/v) and 0.2 ml of water. After vortexing and phase separation, the aqueous phase was removed for counting.
In FIGS. 3A-3E, primary human astrocytes seeded in inserts were stimulated by the combination of Aβ and IL-Iβ as described above. After 24 h, media were removed and inserts were washed and placed on neurons that were pretreated with PTIO for 30 min. In FIG. 3A, after 1 h, activity of N-SMase was measured in total cell extracts of neurons as described above. After 18 h, neuronal viability was examined by the metabolism of MTT (FIG. 3B) and the release of LDH (FIG. 3C). Values obtained from the control group served as 100%, and data obtained in other groups were calculated as percent of control accordingly. Results are mean+S.D. of three different experiments. ^ap<0.001 vs control; ^bp<0.001 vs activated astrocytes. Primary human neurons were treated with 25 μM DETA-NONOate (a NO donor) and at different time points of treatment, activities of N-SMase (FIG. 3D) and A-SMase (FIG. 3E) were monitored. ^ap<0.001 vs control (0 h).

Assay [3] deals with primary human astroglia. The experiment in a line: NO synthesis (nitrite, Griess reagent) in primary human astroglia. In kind it is cell-based. The protocol:
Synthesis of NO was determined by assay of culture supernatants for nitrite, a stable reaction product of NO with molecular oxygen, using Griess reagent as described.
After 24 h of stimulation, the concentration of nitrite was measured in supernatants (FIG. 4A) by Griess reagent. […] Cells were treated with ASO/ScO for 40 h followed by stimulation with the combination of fibrillar Aβ and IL-Iβ as above. After 6 h, the expression of iNOS mRNA was analyzed by both semi-quantitative RT-PCR (C) and quantitative real-time PCR (FIG. 4D). The expression of TNF-a, IL-6 and IL-Iβ mRNAs were analyzed by semi-quantitative RT-PCR (FIG. 4E). Results are mean±SD of three different experiments. ^ap<0.001 vs control; ^bp<0.001 vs (Aβ+IL-Iβ).
(In general: Griess reagent forms a coloured azo dye with nitrite.)

Assay [4] has as its system neurons (NeuN-positive cells). As to the kind of experiment: TUNEL/NeuN neuronal apoptosis in vivo in the cortex of Aβ-microinjected mice.
Assay [5] has as its system N-SMase. As to the kind of experiment: N-SMase activity in vivo in the cortex after microinjection. Also on record: species or system C57/BL6 mice. The protocol:
as §1
(§2) Control mice received saline injection. At indicated time points, cortex was dissected out and divided into two halves—one half for measuring activities of N-SMase (FIG. 7B) and A-SMase (FIG. 7C) and the other for assaying ceramide (FIG. 7D). Control (saline—6 h) group served as 100%, and data from other groups were expressed as percentage of control. Results are mean+SD of five different mice (n=5). ^ap<0.05 vs saline—6 h.

For assay [6], the system named is A-SMase. As to the kind of experiment: A-SMase activity in vivo in the cortex after microinjection. More on the design: species or system C57/BL6 mice. Here is the method:
as §1, §2

Assay [7] relates to iNOS, GFAP and CD11b. The experiment in a line: Immunofluorescence of iNOS, GFAP and CD11b in the cortex of Aβ-microinjected mice. Type of assay: in vivo, C57/BL6 mice. The following applies: cortex, 6 h (and 24 h) of microinjection. The protocol:
[…], mice were perfused with 4% paraformaldehyde and their brains were processed for immunohistochemical studies. For double labeling of GFAP with iNOS, sections (6 μm) were incubated with polyclonal anti-GFAP (GFAP: 1000 dilution; Calbiochem) and anti-iNOS (iNOS: 1000 dilution; Calbiochem) for 24 h at 4° C. After three washes in PBST (15 min each), slides were further incubated with Cy5 and Cy2 (Jackson ImmunoResearch Laboratories, Inc.) secondary antibodies for 2 h at room temperature. For negative controls, a set of tissue sections was incubated under similar conditions without the primary antibodies. The samples were mounted and observed under a Bio-Rad MRC1024ES confocal laser scanning microscope.
After 6 h of Aβ microinjection, mice were perfused and double immunofluorescence for GFAP (green) and iNOS (red) (FIG. 8A) and CD 11b (green) and iNOS (red) (FIG. 8B) was performed.

Assay [8] relates to primary human astrocytes. As to the kind of experiment: GFAP and iNOS double-labeling of primary human astrocytes stimulated with Aβ peptides. In kind it is cell-based. The following applies: peptide stimulation for 24 h. The protocol: In FIG. 5A, primary astrocytes were stimulated with fibrillar Aβ1-42, oligomeric Aβ1-42 and reverse peptide Aβ42-1 for 24 h followed by double-labeling of GFAP and iNOS. In FIG. 5B, primary human astrocytes seeded in inserts were stimulated with a combination of I μM of oligomeric Aβ1-42 and 10 ng/ml of IL-Iβ in serum free media. […] After 6 h, neuronal apoptosis was monitored by TUNEL. In FIG. 5C, TUNEL-positive cells were counted manually in four different images of each of three coverslips by three individuals blinded to the experiment. Values obtained from the control group (1) served as 100%, and data obtained from other three groups i.e. the oligomeric Aβ-activated astrocytes (OAA) group (2), the ASO-OAA group (3), and the ScO-OAA group (4) was calculated as percent of control accordingly. Results are mean+S.D. of three different experiments. ^ap<0.001 vs control; ^bp<0.001 vs OAA.

The test system of assay [9] is ceramide. As to the kind of experiment: Ceramide level in vivo in the cortex (DAG kinase assay). More on the design: species or system C57/BL6 mice. The protocol: After treatment, lipids were extracted from cells as described previously. Ceramide content was quantified using diacylglycerol (DAG) kinase and [γ-^32P] ATP as described earlier. Briefly, dried lipids were solubilized in 20 μl of an octyl β-D-glucoside/cardiolipin solution (7.5% octyl β-D-glucoside, 5 mM cardiolipin in 1 mM diethylenetriaminepentaacetic acid) by sonication in a sonicatorbath. The reaction was then carried out in a final volume of 100 μl containing the 20-μl sample solution, 50 mM imidazole HQ, pH 6.6, 50 mM NaCl, 12.5 mM MgCl2, 1 mM EGTA, 2 mM dithiothreitol, 6.6 μg of DAG kinase, and 1 mM [γ-^32P] ATP (specific activity of 1-5×10^5 cpm/nmol) for 30 min at room temperature. The labeled ceramide-1-phosphate was resolved with a solvent system consisting of methyl acetate:n-propyl alcohol:chloroform:methanol:0.25% KQ in water:acetic acid (100:100:100:40:36:2). […] Quantification of ceramide-1-phosphate was carried out by autoradiography and densitometry scanning using a Fluor Chem 8800 imaging system (Alpha Innotech Corporation). Values are expressed either as arbitrary units (absorbance) or as percent of control, considering control as 100%. […]
Control mice received saline injection. […] Control (saline—6 h) group served as 100%, and data from other groups were expressed as percentage of control. […]

Take `O=C(/C=C/c1ccc(/C=C/C(=O)Nc2ccc(C3=NCCN3)cc2)cc1)Nc1ccc(C2=NCCN2)cc1` [GW4869]: the “(Aβ+IL-1β)-induced DNA-binding activity of NF-κB” value in assay [1] is given as “markedly suppressed”. Besides, in assay [2], the “activity of N-SMase” value was “strongly suppressed”. In addition, the “(Aβ+IL-1β)-induced production of NO” value in assay [3] (astroglia preincubated 30 min with different concentrations of chemical inhibitor, nitrite after 24 h) is given as “markedly suppressed”.

Take “fibrillar Aβ1-42: human Aβ peptide (1-42), Bachem, incubated at 50 μM at 37° C. for 5 days”: the “apoptotic death of neurons in vivo in the cortex after Aβ microinjection” value in assay [4] (24 h after microinjection) was “markedly induced”. In addition, the “apoptosis in neurons (NeuN-positive cells) after Aβ microinjection” value in assay [4] (within 6 h of microinjection) is “unable to induce any apoptosis”. The “activation of N-SMase in the cortex compared to saline microinjection” value in assay [5] (1 μg peptide, over the time course) is “marked increase”. In assay [5] (6 h of microinjection, 1 μg peptide), the “increase in the activity of N-SMase in the cortex” value is “More than 3 fold”. Also, the figures for the “activity of N-SMase in the cortex, in words” value in [5] (12 h of microinjection) and in assay [5] (24 h of microinjection) were “increased further” and “decreased”, respectively. The “increase in the activity of N-SMase in the cortex compared to saline” value in [5] (12 h of microinjection, 1 μg peptide) is on record as “more than 300%”. For the same compound, the “increase in the activity of N-SMase in vivo in the cortex compared to saline” value in [5] (antisense experiment, Aβ alone) is on record as “more than 4 fold”. Also, the “activity of A-SMase in the cortex” value in assay [6] (1 μg peptide microinjected, same setting as N-SMase) is “unable to increase”. The “increase in the activity of A-SMase after Aβ microinjection” value in [6] (antisense experiment, Aβ alone) is reported as “about 35%”. For the same compound, the entries for the “glial expression of iNOS (GFAP-positive astrocytes, CD11b-positive microglia) and GFAP after Aβ microinjection” value in [7] and in assay [7] (listed as Aβ) were “induced” and “marked increase”, respectively. Also, the “astroglial iNOS protein and GFAP” value in assay [8] is “induced the expression of iNOS protein and increased the level of GFAP”. Further, the “increase in the ceramide level in the cortex” value in assay [9] (after 6 h) is “about 3 fold”; in [9] (after 12 h), “about 4 fold”. Besides, in assay [3] (primary human astroglia, level comparable to IL-1β), the “production of NO by the stimulus alone” value is “capable of inducing”.
